From patent US9828350B2, “5,6-dihydro-2H-[1,4]oxazin-3-yl-amine derivatives useful as inhibitors of beta-secretase (BACE)” (Janssen Pharmaceutica NV, priority 2010, dated 2017)

Key:
Abeta total = test: Cellular αLisa assay in SKNBE2 cells, Abeta total; assay type: cell-based, human; details: incubated for 18 hours; for IC50: Homo sapiens, SKNBE2, 18 h, read-out: Cellular αLisa assay in SKNBE2 cells Abetatotal pIC50 (converted)
Summary of the method: (§1)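 Secreted Abeta levels were measured by sandwich αLisa, pairing biotin-AbN/25 donor beads with Ab4G8 acceptor beads for total Abeta or cAb42/26 for Abeta 1-42, read at 615 nm after 650 nm excitation following 1 hour. Cells were SKNBE2 expressing wild-type hAPP695, exposed to compound for 18 hours.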

Abeta 1-42 = test: Cellular αLisa assay in SKNBE2 cells, Abeta 1-42; assay type: cell-based, human; details: incubated for 18 hours; for IC50: Homo sapiens, SKNBE2, 18 h, read-out: Cellular αLisa assay in SKNBE2 cells Abeta 42 pIC50 (converted)
Summary of the method: as §1

[1] = target: recombinant BACE1 protein (Homo sapiens, UniProt P56817); test: Biochemical FRET based assay; details: recombinant BACE1 1 μg/ml, 120 minutes at room temperature, pH 5.0; for IC50: read-out: Biochemical FRET based assay pIC50 (converted)
Summary of the method: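 Proteolysis was read as the rise in donor fluorescence (320 nm excitation, 405 nm emission) from T0 to T120, expressed in RFU. The reaction ran 120 minutes at room temperature at pH 5.0 in citrate buffer with 4% DMSO, using […] quenched Swedish APP peptide and 1 μg/ml BACE1.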

Chain of recombinant BACE1 protein (P56817 46-501): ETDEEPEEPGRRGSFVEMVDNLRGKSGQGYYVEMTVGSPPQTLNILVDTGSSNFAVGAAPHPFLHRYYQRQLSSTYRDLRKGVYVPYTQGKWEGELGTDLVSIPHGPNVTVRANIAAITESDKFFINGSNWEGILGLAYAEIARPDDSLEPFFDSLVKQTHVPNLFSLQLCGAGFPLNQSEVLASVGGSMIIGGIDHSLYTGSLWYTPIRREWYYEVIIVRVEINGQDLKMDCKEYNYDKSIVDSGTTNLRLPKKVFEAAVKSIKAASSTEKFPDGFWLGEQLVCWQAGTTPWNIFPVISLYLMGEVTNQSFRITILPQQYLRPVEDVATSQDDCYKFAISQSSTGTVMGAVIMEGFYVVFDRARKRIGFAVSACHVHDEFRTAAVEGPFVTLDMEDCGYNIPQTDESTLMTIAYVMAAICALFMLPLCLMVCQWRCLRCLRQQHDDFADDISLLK

Row | Cellular αLisa assay in SKNBE2 cells Abetatotal pIC50 (Abeta total) | Cellular αLisa assay in SKNBE2 cells Abeta 42 pIC50 (Abeta 1-42) | IC50 [1] | IC50 (Abeta total) | IC50 (Abeta 1-42) | Biochemical FRET based assay pIC50 [1] | SMILES
1 | 7.34 | 7.3 | 74.1 nM | – | – | – | CCC1(c2cc(NC(=O)c3cnc(OC)cn3)ccc2F)N=C(N)COC1F (stereo not drawn) [Compound 281]
2 | – | – | 43.7 nM | 69.2 nM | 74.1 nM | – | C[C@]1(c2cc(NC(=O)c3cnc(OCC(F)(F)F)cn3)ccc2F)N=C(N)CO[C@@]1(F)C(F)(F)F [Compound 319]
3 | – | – | 25.7 nM | 10.2 nM | 10.5 nM | – | C[C@]1(c2cccc(NC(=O)c3ccc(C#N)cn3)c2)N=C(N)CO[C@]1(F)C(F)(F)F [Compound 240]
4 | 6.09 | 5.98 | – | – | – | 5.13 | CC1(c2cc(-c3cccc(OC(F)(F)F)c3)c(F)cc2F)COCC(N)=N1.Cl (stereo not drawn) [Compound 36]
5 | – | – | 1380 nM | 1120 nM | 1450 nM | – | N#Cc1cncc(-c2cccc([C@@]3(C4CC4)N=C(N)CO[C@@H]3F)c2)c1 [Compound 311]
6 | – | – | 55 nM | 8.51 nM | 11.7 nM | – | CC1(c2cc(NC(=O)c3ncc(Cl)cc3Cl)ccc2F)N=C(N)COC1F (stereo not drawn) [Compound 78]
7 | – | – | 25.1 nM | 10.2 nM | 11.5 nM | – | NC1=N[C@@](c2cc(NC(=O)c3ncc(Cl)cc3Cl)ccc2F)(C2CC2)[C@H](C(F)(F)F)OC1 [Compound 234]
8 | 6.52 | 6.51 | – | – | – | 6.3 | N#Cc1ccc(C(=O)Nc2ccc(F)c(C3(C4CC4)N=C(N)COC3F)c2)nc1 (stereo not drawn) [Compound 215]
9 | – | – | 200 nM | 93.3 nM | 107 nM | – | C[C@]1(c2cc(NC(=O)c3ncc(C#N)cc3Cl)ccc2F)N=C(N)CO[C@@]1(F)C(F)(F)F [Compound 307]
10 | 6.24 | 6.33 | 3470 nM | – | – | – | CC1(c2cccc(-c3cncc(C#N)c3)c2)N=C(N)COC1C(F)(F)F (single isomer, unassigned) [Compound 207]
11 | 7.663 | 7.59 | – | – | – | 6.7 | CC1(c2cc(NC(=O)c3cnc(C(F)(F)F)cn3)ccc2F)COCC(N)=N1 (stereo not drawn) [Compound 22]
12 | – | – | 52.5 nM | 11.7 nM | 12 nM | – | CC1(c2cc(NC(=O)c3ncc(Cl)cc3F)ccc2F)N=C(N)COC1F (stereo not drawn) [Compound 77]
13 | – | – | 263 nM | 120 nM | 120 nM | – | NC1=N[C@@](c2cccc(NC(=O)c3cnc(OCC(F)(F)F)cn3)c2)(C2CC2)[C@H](F)OC1 [Compound 274]
14 | 8.05 | 8.01 | 40.7 nM | – | – | – | CC1(c2cccc(NC(=O)c3ncc(Cl)cc3F)c2)N=C(N)COC1F (single isomer, unassigned) [Compound 163]
15 | 5.25 | 5.2 | > 30200 nM | – | – | – | CC1(c2cccc(NC(=O)c3ccncn3)c2)N=C(N)COC1(F)C(F)(F)F (single isomer, unassigned) [Compound 190]
16 | ~5 | <5 | > 30200 nM | – | – | – | CC1(c2cc(-c3cncc(C#N)c3)ccc2F)N=C(N)COC1C(F)(F)F (single isomer, unassigned) [Compound 266]
17 | – | – | 102 nM | 4.27 nM | 4.9 nM | – | C[C@@]1(c2cccc(NC(=O)c3ccc(Cl)cn3)c2)COC2(CC2)C(N)=N1 [Compound 73]
18 | 5.24 | 5.18 | 295 nM | – | – | – | CC1(c2cccc(NC(=O)c3ncc(Cl)cc3F)c2)N=C(N)COC1(F)C(F)(F)F (single isomer, unassigned) [Compound 175]
19 | 6.79 | 6.77 | – | – | – | 5.45 | C[C@@]1(c2cc(-c3cc(F)cc(F)c3)c(F)cc2F)COCC(N)=N1 [Compound 37]
20 | – | – | 44.7 nM | 28.2 nM | 33.9 nM | – | COc1cnc(C(=O)Nc2ccc(F)c([C@@]3(C)N=C(N)CO[C@@]3(F)C(F)(F)F)c2)cn1 [Compound 180]
21 | – | – | 219 nM | 81.3 nM | 89.1 nM | – | NC1=N[C@@](c2cccc(NC(=O)c3ncc(Cl)cc3F)c2)(C2CC2)[C@H](F)OC1 [Compound 249, (2S,3R)—N-[3-(5-amino-3-cyclopropyl-2-fluoro-3,6-dihydro-2H-1,4-oxazin-3-yl)phenyl]-5-chloro-3-fluoropyridine-2-carboxamide]

Row | Cellular αLisa assay in SKNBE2 cells Abetatotal pIC50 (Abeta total) | Cellular αLisa assay in SKNBE2 cells Abeta 42 pIC50 (Abeta 1-42) | IC50 [1] | IC50 (Abeta total) | IC50 (Abeta 1-42) | Biochemical FRET based assay pIC50 [1] | SMILES
22 | – | – | 85.1 nM | 126 nM | 135 nM | – | NC1=N[C@@](c2cc(NC(=O)c3ncc(Cl)cc3Cl)ccc2F)(C2CC2)[C@@H](F)OC1 [Compound 259]
23 | <5 | 5.13 | 5130 nM | – | – | – | COc1cnc(C(=O)Nc2cccc(C3(C)COC(F)(C(F)(F)F)C(N)=N3)c2)cn1 (single isomer, unassigned) [Compound 69]
24 | 6.74 | 6.72 | – | – | – | 5.67 | CC1(c2cc(NC(=O)c3ccc(C(F)(F)F)nn3)ccc2F)COCC(N)=N1 (stereo not drawn) [Compound 26]
25 | – | – | 138 nM | 27.5 nM | 32.4 nM | – | NC1=N[C@@](c2cccc(NC(=O)c3ncc(Cl)cc3F)c2)(C2CC2)[C@@H](C(F)(F)F)OC1 [Compound 287]
26 | 6.93 | 6.91 | 437 nM | – | – | – | CC1(c2cccc(NC(=O)c3ccncn3)c2)N=C(N)COC1(F)C(F)(F)F (single isomer, unassigned) [Compound 188]
27 | 6.58 | 6. | – | – | – | 5.12 | CC1(c2cccc(-c3cccc(C#N)c3)c2)COCC(N)=N1 (racemic) [Compound 10]
28 | – | – | 1480 nM | 490 nM | 437 nM | – | CC1(c2cc(-c3cncnc3)ccc2F)N=C(N)COC1(F)C(F)(F)F (single isomer, unassigned) [Compound 111]
29 | 7.09 | 7 | 363 nM | – | – | – | CC1(c2cc(-c3cncnc3)ccc2F)N=C(N)COC1C(F)(F)F (single isomer, unassigned) [Compound 268]
30 | 6.65 | 6.56 | 891 nM | – | – | – | CCC1(c2cc(NC(=O)c3cnc(OC)cn3)ccc2F)N=C(N)COC1F (stereo not drawn) [Compound 282]
31 | – | – | 132 nM | 47.9 nM | 46.8 nM | – | NC1=N[C@@](c2cccc(-c3cncc(F)c3)c2)(C2CC2)[C@H](C(F)(F)F)OC1 [Compound 270]
32 | 5.55 | 5.45 | – | – | – | 4.67 | COc1cccc(-c2cc([C@]3(C)COCC(N)=N3)c(F)cc2F)n1.Cl [Compound 145]
33 | 6.38 | 6.35 | 1100 nM | – | – | – | COc1cnc(C(=O)Nc2cccc(C3(C)N=C(N)COC3F)c2)cn1 (single isomer, unassigned) [Compound 132]
34 | – | – | 33.1 nM | 14.1 nM | 14.5 nM | – | N#Cc1cnc(C(=O)Nc2ccc(F)c([C@@]3(C4CC4)N=C(N)CO[C@H]3C(F)(F)F)c2)c(Cl)c1 [Compound 235]
35 | – | – | 16.6 nM | 13.5 nM | 17.8 nM | – | Cc1cc(Br)cnc1C(=O)Nc1cccc([C@@]2(C3CC3)N=C(N)CO[C@@H]2F)c1 [Compound 313]
36 | – | – | 81.3 nM | 145 nM | 170 nM | – | Cc1cc(Cl)cnc1C(=O)Nc1ccc(F)c([C@@]2(C3CC3)N=C(N)CO[C@@H]2F)c1 [Compound 315]
37 | – | – | 1100 nM | 200 nM | 200 nM | – | C[C@@]1(c2cc(-c3cncnc3)c(F)cc2F)COC2(CC2)C(N)=N1 [Compound 150]
38 | 7.86 | 7.82 | – | – | – | 7.03 | C[C@@]1(c2cccc(NC(=O)c3ccc(Cl)cn3)c2)N=C(N)CO[C@H]1F (racemic) [Compound 91, trans-rac-N-[3-(5-amino-2-fluoro-3-methyl-3,6-dihydro-2H-1,4-oxazin-3-yl)phenyl]-5-chloropyridine-2-carboxamide]
39 | – | – | 32.4 nM | 4.9 nM | 5.62 nM | – | N#Cc1cnc(C(=O)Nc2cccc([C@@]3(C4CC4)N=C(N)CO[C@H]3C(F)(F)F)c2)c(Cl)c1 [Compound 291]
40 | – | – | 851 nM | 155 nM | 158 nM | – | NC1=N[C@@](c2cccc(-c3cncnc3)c2)(C2CC2)[C@@H](C(F)(F)F)OC1 [Compound 286]
41 | <5 | <5 | > 30200 nM | – | – | – | COc1cncc(-c2cccc(C3(C)N=C(N)COC3C(F)(F)F)c2)c1 (single isomer, unassigned) [Compound 102]
